Source: patent publication US9018173B2, “Materials and methods for suppressing inflammatory and neuropathic pain” (Indiana University Research and Technology Corp., priority 2010, dated 2015)
Residues, ends and D or L forms follow the SMILES beside them. No end group written: not given here.

Experiments:
[1] = tested on: anxiety-associated behavior; experiment: Elevated plus maze (EPM); type: in vivo, C57BL6 mice
[2] = tested on: anxiety-associated behavior; experiment: Light-Dark Box test (LDBT); type: in vivo, C57BL6 mice
Procedure: The light-dark box test and the elevated plus maze were used as measures of anxiety-associated behaviors. The tail suspension test was performed to evaluate despair- and depression-associated behavior. Anxiety-behavior testing Anxiety occurs when there is conflict between risk and reward. The Light-Dark Box test (LDBT) and the elevated plus maze (EPM) are accepted tests of anxiety-associated behavior that assess the conflict mice have against hiding in enclosed dark areas (i.e., dark box or closed arm) and their tendency to explore novel environments (i.e., white box or open arm). Lalonde, R. & Strazielle, C. […] J. Neurosci. Methods. 171, 48-52 (2008). These tests are also sensitive to anxiolytic drug treatments. Light-Dark Box test as a measure of anxiety-associated behavior. For the light-dark box test (LDBT), there were two adjoined light and dark compartments boxes with a 7 cm square opening to allow mice to move between them. The black box was covered (20 cm×40 cm×30 cm height) and the white box (20 cm×40 cm×30 cm height) was open and illuminated (40 W). Each mouse was placed into the white compartment and the white compartment was video recorded for later analyses using ANY-maze software (version 4.75, Stoelting, Wood Dale, Ill.) which is a video tracking system designed to automate testing in behavioral experiments. The main parameters were duration of time spent in the light box; the latency to enter the dark box; and the number of transitions between the light and dark box.

[3] = tested on: depression/despair-associated behavior; experiment: Tail suspension test (TST); type: in vivo, C57BL6 mice
Procedure: The light-dark box test and the elevated plus maze were used as measures of anxiety-associated behaviors. The tail suspension test was performed to evaluate despair- and depression-associated behavior.
Depression/Despair-behavior testing. Since rodents such as mice and rats display immobile postures when placed in inescapable stressful situations, immobility behavior in the tail suspension test (TST) or forced swim test (FST) is used as a measure of “depression” or “despair”-associated behavior. Furthermore, administering antidepressant treatments prior to testing reduces immobility behavior. Therefore TST and FST are often used to screen novel drugs for depressant or anti-depressant properties.
Tail suspension test as a measure of depression-associated behavior. Immediately following the EPM test, the TST was conducted according to standard procedure between 8:00 AM and 2:00 PM. Cryan, J. F., Mombereau, C., & Vassout, A. The tail suspension test as a model for assessing antidepressant activity: review of pharmacological and genetic studies in mice. Neurosci. Biobehay. Rev. 29, 571-625 (2005). Briefly, each mouse was suspended by the tail at a height of 40 cm by taping the rail to a horizontal bar so that the tail is vertical to the bar. Behavior was video recorded for 5 min and later analyzed by an experimenter, whom was blind to the treatments. […] If a mouse climbed its tail the mouse was gently pulled back down and the trial continued. Mice that climbed their tails for more than 20% of the trial (i.e. >60 seconds) were eliminated from the final analysis. Duration and frequency of immobility was the main parameters measured. Mice injected with the scrambled control peptide were immobile approximately 26% of the TST duration which is equivalent to baseline immobility durations (approximately 27%) observed in C57B16 mice in another recent study.

[4] = Biodistribution after i.p. injection (dot blot, FITC fluorescence); details: 25 mg/kg i.p.
[5] = tested on: capsaicin-induced meningeal blood flow changes
[6] = C57BL6 mice, 10 mg/kg i.p., 1 h after injection, 5 min test

Molecule | EPM time in the open arm compared to the closed arm ([1]; 10 mg/kg) | Elevated Plus Maze: Closed arm entries [1, 6] | Elevated Plus Maze: Closed arm latency to enter [1, 6] [s] | Elevated Plus Maze: Closed arm latency to exit [1, 6] [s] | Elevated Plus Maze: Open arm entries [1, 6] | Elevated Plus Maze: Open arm latency to enter [1, 6] [s] | Elevated Plus Maze: Open arm latency to exit [1, 6] [s] | Light-Dark Box: Dark box latency to exit [2, 6] [s] | Light-Dark Box: Light box entries [2, 6] | LDBT time in the light box ([2]; mouse, in vivo) | Tail Suspension Test: Active [3, 6] [s] | TST immobility as share of test duration ([3]; mouse, in vivo) | tissue distribution (dot blot, anti-TAT antibody) ([4]; 15 min post-injection) | tissue distribution (dot blot, anti-TAT antibody) ([4]; 1 h post-injection) | capsaicin-induced blood flow changes (effect in words) ([5]; dural application prior to nasal capsaicin 100 nM) | capsaicin-induced blood flow change after CGRP antagonist ([5]; prior topical administration, n=3) [%]
CC[C@H](C)[C@H](NC(=O)[C@@H](NC(=O)[C@H](CC(C)C)NC(=O)[C@H](C)NC(=O)[C@H](CCC(=O)O)NC(=O)[C@H](Cc1ccccc1)NC(=O)[C@H](Cc1ccc(O)cc1)NC(=O)[C@H](CC(C)C)NC(=O)[C@H](CCSC)NC(=O)[C@H](CCC(=O)O)NC(=O)[C@H](CCCCN)NC(=O)[C@H](C)NC(=O)[C@H](CCC(=O)O)NC(=O)[C@H](Cc1c[nH]c2ccccc12)NC(=O)[C@H](CCCNC(=N)N)NC(=O)[C@H](CCCNC(=N)N)NC(=O)[C@H](CCCNC(=N)N)NC(=O)[C@H](CCC(N)=O)NC(=O)[C@H](CCCNC(=N)N)NC(=O)[C@H](CCCNC(=N)N)NC(=O)[C@H](CCCCN)NC(=O)[C@H](CCCCN)NC(=O)[C@H](CCCNC(=N)N)NC(=O)CNC(=O)[C@@H](N)Cc1ccc(O)cc1)C(C)C)C(=O)N[C@@H](CCC(=O)O)C(=O)O [TAT-Scramble, reference compound] (H-YGRKKRRQRRRWEAKEMLYFEALVIE-OH; N-terminus and C-terminus assumed) | approximately 30% | 16.3 ± 2.0 | 6.3 ± 2.5 | 14.7 ± 3.0 | 11.5 ± 1.6 | 5.9 ± 2.3 | 14.5 ± 3.1 | 53.0 ± 11.5 | 8.2 ± 0.8 | approximately 25% | 221.0 ± 11.3 | approximately 26% | detected in spleen and largely concentrated in lumbar dorsal root ganglion (DRG) and lumbar section of the spinal cord | also detected in kidney, brain, spinal cord and was abundant in the DRG |  | 
CGRP8-37: CGRP antagonist (VTHRLAGLLSRSGGVVKNNFVPTNVGSKAF; ends and bridges not checked; UniProt P06881 90-119, looked up, fragment) |  |  |  |  |  |  |  |  |  |  |  |  |  |  | blocked | 5±4
